# Reference: PubChem BioAssay (NCI)
#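 Growth conditions: 96-well plates. Treatment: test compound, 48 hours, 5 concentrations. Analysis: linear interpolation between bracketing concentrations; unreached endpoints set to highest concentration. GI50: concentration for 50% inhibition of growth. TGI denotes the concentration required for complete inhibition of growth.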
# Key:
# Assay in all cases: NCI anticancer screen, dose series, 48 h
# MDA-MB-468 breast = tested on: MDA-MB-468 breast
# MDA-MB-231 breast = tested on: MDA-MB-231 breast
# CCRF-CEM leukemia = tested on: CCRF-CEM leukemia
# SK-MEL-2 melanoma = tested on: SK-MEL-2 melanoma
# SR leukemia = tested on: SR leukemia
# OVCAR-5 ovarian = tested on: OVCAR-5 ovarian
# U251 CNS = tested on: U251 CNS
# NCI-H23 lung = tested on: NCI-H23 lung
# OVCAR-3 ovarian = tested on: OVCAR-3 ovarian
# EKVX NSCLC = tested on: EKVX NSCLC
# UACC-62 melanoma = tested on: UACC-62 melanoma
# COLO 205 colon = tested on: COLO 205 colon
# NCI-H226 lung = tested on: NCI-H226 lung
# M14 melanoma = tested on: M14 melanoma
# CAKI-1 renal = tested on: CAKI-1 renal
# SF-295 CNS = tested on: SF-295 CNS
# NCI-H522 lung = tested on: NCI-H522 lung
# MDA-MB-435 = tested on: MDA-MB-435
# HS 578T breast = tested on: HS 578T breast
# IGROV1 ovarian = tested on: IGROV1 ovarian
# SK-MEL-5 melanoma = tested on: SK-MEL-5 melanoma
# OVCAR-8 ovarian = tested on: OVCAR-8 ovarian
# MALME-3M melanoma = tested on: MALME-3M melanoma
# NCI/ADR-RES ovarian = tested on: NCI/ADR-RES ovarian
# HCT-15 colon = tested on: HCT-15 colon
# HOP-62 NSCLC = tested on: HOP-62 NSCLC
# HCC-2998 colon = tested on: HCC-2998 colon
# K-562 leukemia = tested on: K-562 leukemia
# KM12 colon = tested on: KM12 colon
# 786-0 renal = tested on: 786-0 renal
# MOLT-4 leukemia = tested on: MOLT-4 leukemia
# LOX IMVI melanoma = tested on: LOX IMVI melanoma
# DU-145 prostate = tested on: DU-145 prostate
# HOP-92 NSCLC = tested on: HOP-92 NSCLC
# SF-539 CNS = tested on: SF-539 CNS
# HT29 colon = tested on: HT29 colon
# BT-549 breast = tested on: BT-549 breast
# A549 NSCLC = tested on: A549 NSCLC
# SF-268 CNS = tested on: SF-268 CNS
# T-47D breast = tested on: T-47D breast
# OVCAR-4 ovarian = tested on: OVCAR-4 ovarian
# TK-10 renal = tested on: TK-10 renal
# NCI-H460 lung = tested on: NCI-H460 lung
# HCT-116 colon = tested on: HCT-116 colon
# MCF7 breast = tested on: MCF7 breast
# SK-OV-3 ovarian = tested on: SK-OV-3 ovarian
# SN12C renal = tested on: SN12C renal
# RPMI-8226 leukemia = tested on: RPMI-8226 leukemia
# SNB-19 CNS = tested on: SNB-19 CNS
# UACC-257 melanoma = tested on: UACC-257 melanoma
# UO-31 renal = tested on: UO-31 renal
# A498 renal = tested on: A498 renal
# RXF 393 renal = tested on: RXF 393 renal
# SK-MEL-28 melanoma = tested on: SK-MEL-28 melanoma
# PC-3 prostate = tested on: PC-3 prostate
# ACHN renal = tested on: ACHN renal
smiles,measurement,setting,value
CC1SC(c2ccccc2)N(CCc2cccs2)C1=O (centres undefined),GI50,MDA-MB-468 breast,2.43 µM
same,TGI,MDA-MB-468 breast,8.42 µM
COc1cccc(-n2ncc3c(N/N=C/c4ccc(C(=O)NCCN(C)C)cc4)ncnc32)c1,GI50,MDA-MB-468 breast,0.853 µM
same,TGI,MDA-MB-468 breast,5.16 µM
O=C(NCCO)Nc1ccc(-c2nc(N3CCOCC3)c3cccn3n2)cc1,GI50,MDA-MB-468 breast,0.0889 µM
same,TGI,MDA-MB-468 breast,2.35 µM
CC(C)c1cc(-c2n[nH]c(=O)n2-c2ccc3c(ccn3C)c2)c(O)cc1O,GI50,MDA-MB-468 breast,< 0.0143 µM
same,TGI,MDA-MB-468 breast,0.327 µM
CC1(C)CC(=O)c2c(C(F)(F)F)nn(-c3ccc(C(N)=O)c(NC4CCC(OC(=O)CN)CC4)c3)c2C1 (centres undefined),GI50,MDA-MB-468 breast,0.0243 µM
same,TGI,MDA-MB-468 breast,0.0683 µM
Cc1cc(N(CCCl)CCCl)ccc1C=Nc1ccc(-c2csc(Cc3ccccc3)n2)cc1,GI50,MDA-MB-468 breast,0.16 µM
same,TGI,MDA-MB-468 breast,2.86 µM
CCCCC(CC)CN=C(N)NC(N)=NCCCCCCN=C(N)NC(N)=NCC(CC)CCCC (centres undefined),GI50,MDA-MB-468 breast,1.27 µM
same,TGI,MDA-MB-468 breast,2.73 µM
COc1ccc(/C=C2\CCCC3=C2N=C2SC(C)=NN2C3c2ccc(OC)c(OC)c2)cc1OC (centres undefined),GI50,MDA-MB-468 breast,2.61 µM
same,TGI,MDA-MB-468 breast,9.09 µM
CN(C)CC(=O)Nc1ccc(Cn2nnc3c2C(=O)c2nnn(Cc4ccc(NC(=O)CN(C)C)cc4)c2C3=O)cc1,GI50,MDA-MB-468 breast,0.104 µM
same,TGI,MDA-MB-468 breast,0.258 µM
COc1ccc(-c2n/c(=C\c3c(O)[nH]c4ccc(OC)cc34)cc3c2=Nc2ccccc2-3)cc1,GI50,MDA-MB-468 breast,1.56 µM
same,TGI,MDA-MB-468 breast,3.46 µM
O=C(CCCCCCC(=O)Nc1ccc(N(CCCl)CCCl)cc1)NO,GI50,MDA-MB-468 breast,0.232 µM
same,TGI,MDA-MB-468 breast,1.11 µM
Oc1cccc2ccc(N/N=C/c3cc(CN4CCCCC4)c(O)c4ncccc34)nc12,GI50,MDA-MB-468 breast,0.0401 µM
same,TGI,MDA-MB-468 breast,0.533 µM
CCCC(C)c1cc(Cc2cc(Cl)cc(Cl)c2O)c(O)c(Cc2cc(Cl)cc(Cl)c2O)c1 (centres undefined),GI50,MDA-MB-468 breast,0.393 µM
same,TGI,MDA-MB-468 breast,5.07 µM
COc1ccc(C(=O)/C=C/c2cccc(Br)c2)cc1S(N)(=O)=O,GI50,MDA-MB-231 breast,2.45 µM
same,TGI,MDA-MB-231 breast,6.75 µM
same,GI50,CCRF-CEM leukemia,2.54 µM
same,TGI,CCRF-CEM leukemia,6.12 µM
same,GI50,SK-MEL-2 melanoma,8.73 µM
same,TGI,SK-MEL-2 melanoma,21.9 µM
same,GI50,SR leukemia,0.732 µM
same,TGI,SR leukemia,3.54 µM
same,GI50,OVCAR-5 ovarian,1.74 µM
same,TGI,OVCAR-5 ovarian,4.25 µM
same,GI50,U251 CNS,1.34 µM
same,TGI,U251 CNS,2.69 µM
same,GI50,NCI-H23 lung,1.77 µM
same,TGI,NCI-H23 lung,3.43 µM
same,GI50,OVCAR-3 ovarian,1.29 µM
same,TGI,OVCAR-3 ovarian,3.17 µM
same,GI50,EKVX NSCLC,5.24 µM
same,TGI,EKVX NSCLC,18.5 µM
same,GI50,UACC-62 melanoma,1.68 µM
same,TGI,UACC-62 melanoma,3.89 µM
same,GI50,COLO 205 colon,1.92 µM
same,TGI,COLO 205 colon,3.51 µM
same,GI50,NCI-H226 lung,2.81 µM
same,TGI,NCI-H226 lung,11.4 µM
same,GI50,M14 melanoma,1.81 µM
same,TGI,M14 melanoma,4.64 µM
same,GI50,CAKI-1 renal,2.28 µM
same,TGI,CAKI-1 renal,7.89 µM
same,GI50,SF-295 CNS,2.09 µM
same,TGI,SF-295 CNS,6.44 µM
same,GI50,NCI-H522 lung,1.63 µM
same,TGI,NCI-H522 lung,3.23 µM
same,GI50,MDA-MB-435,2.06 µM
same,TGI,MDA-MB-435,7.14 µM
same,GI50,HS 578T breast,16 µM
same,TGI,HS 578T breast,68.6 µM
same,GI50,IGROV1 ovarian,2.24 µM
same,TGI,IGROV1 ovarian,8.6 µM
same,GI50,SK-MEL-5 melanoma,2.31 µM
same,TGI,SK-MEL-5 melanoma,6.38 µM
same,GI50,OVCAR-8 ovarian,2.28 µM
same,TGI,OVCAR-8 ovarian,10.6 µM
same,GI50,MALME-3M melanoma,3.19 µM
same,TGI,MALME-3M melanoma,14 µM
same,GI50,NCI/ADR-RES ovarian,2.21 µM
same,TGI,NCI/ADR-RES ovarian,7.13 µM
same,GI50,HCT-15 colon,1.01 µM
same,TGI,HCT-15 colon,2.39 µM
same,GI50,HOP-62 NSCLC,2.05 µM
same,TGI,HOP-62 NSCLC,5.74 µM
same,GI50,HCC-2998 colon,1.45 µM
same,TGI,HCC-2998 colon,2.99 µM
same,GI50,K-562 leukemia,1.35 µM
same,TGI,K-562 leukemia,4.41 µM
same,GI50,KM12 colon,1.33 µM
same,TGI,KM12 colon,3.29 µM
same,GI50,786-0 renal,1.63 µM
same,TGI,786-0 renal,3.33 µM
same,GI50,MOLT-4 leukemia,2.17 µM
same,TGI,MOLT-4 leukemia,4.71 µM
same,GI50,LOX IMVI melanoma,1.24 µM
same,TGI,LOX IMVI melanoma,2.48 µM
same,GI50,DU-145 prostate,3.56 µM
same,TGI,DU-145 prostate,12.8 µM
same,GI50,HOP-92 NSCLC,1.8 µM
same,TGI,HOP-92 NSCLC,11.8 µM
same,GI50,SF-539 CNS,1.69 µM
same,TGI,SF-539 CNS,3.44 µM
same,GI50,HT29 colon,1.61 µM
same,TGI,HT29 colon,3.28 µM
same,GI50,BT-549 breast,1.51 µM
same,TGI,BT-549 breast,3.46 µM
same,GI50,A549 NSCLC,2.82 µM
same,TGI,A549 NSCLC,10.2 µM
same,GI50,SF-268 CNS,3.02 µM
same,TGI,SF-268 CNS,12.7 µM
same,GI50,T-47D breast,2.13 µM
same,TGI,T-47D breast,6.01 µM
same,GI50,OVCAR-4 ovarian,4.08 µM
same,TGI,OVCAR-4 ovarian,17.3 µM
same,GI50,TK-10 renal,2.23 µM
same,TGI,TK-10 renal,11.9 µM
same,GI50,NCI-H460 lung,3.16 µM
same,TGI,NCI-H460 lung,11.4 µM
same,GI50,HCT-116 colon,1.04 µM
same,TGI,HCT-116 colon,2.21 µM
same,GI50,MCF7 breast,1.58 µM
same,TGI,MCF7 breast,5.22 µM
same,GI50,SK-OV-3 ovarian,4.06 µM
same,TGI,SK-OV-3 ovarian,15 µM
same,GI50,SN12C renal,1.44 µM
same,TGI,SN12C renal,3.48 µM
same,GI50,RPMI-8226 leukemia,2.05 µM
same,TGI,RPMI-8226 leukemia,5.52 µM
same,GI50,SNB-19 CNS,2.91 µM
same,TGI,SNB-19 CNS,12 µM
same,GI50,UACC-257 melanoma,3.27 µM
same,TGI,UACC-257 melanoma,14.5 µM
same,GI50,UO-31 renal,1.29 µM
same,TGI,UO-31 renal,2.7 µM
same,GI50,A498 renal,13.8 µM
same,TGI,A498 renal,27 µM
same,GI50,MDA-MB-468 breast,1.39 µM
same,TGI,MDA-MB-468 breast,2.87 µM
same,GI50,RXF 393 renal,1.6 µM
same,TGI,RXF 393 renal,3.2 µM
same,GI50,SK-MEL-28 melanoma,2.15 µM
same,TGI,SK-MEL-28 melanoma,5.46 µM
same,GI50,PC-3 prostate,2.02 µM
same,TGI,PC-3 prostate,4.93 µM
same,GI50,ACHN renal,1.67 µM
same,TGI,ACHN renal,3.11 µM
Cc1ccc(-c2nc(C(Cl)Cl)nc3cc(-c4ccccc4)nn23)cc1,GI50,MDA-MB-468 breast,2.94 µM
